Measured values from patent publication US11787839B2, “Targeting α2δ-1-bound glutamate receptors for treating diseases and disorders” (Board of Regents, The University of Texas System, priority 2017, dated 2023).
Entries after “also recorded” stand apart in the source; their conditions may differ.

Assays:
[1] = biological target: T1, NMDARs of spinal dorsal horn neurons (Rattus norvegicus, UniProt P35439+Q00959+Q00960); assay: Electrophysiological recordings in rat spinal cord slices (SNL, Cacna2d1 vector); format: cell-based; set-up: SNL-induced increase in (NMDAR-mediated) baseline frequency of mEPSCs: dose or concentration left out as unconfirmed; conditions: SNL rats, siRNA intrathecal
T1 construct: from tissue; host or cells: rat lumbar spinal cord slices (lamina II neurons) and synaptosomes made from them
Method: Electrophysiological recordings in spinal cord slices: Anesthesia was induced in rats or mice with isoflurane and removed the lumbar spinal cords via laminectomy. […] The spinal cord slices were placed in a glass bottom chamber and continuously perfused with Krebs solution at 5.0 ml/min at 34° C. maintained by an inline solution heater and a temperature controller.
It becomes impossible to visualize neurons in other laminas in adult (>10-week-old) rodent spinal cords because of heavy laminar myelination. […] The tip of the puff pipette was placed 150 μm away from the recorded neuron.
In some experiments, the attached dorsal root was electrically stimulated with a stimulating electrode (0.5 ms, 0.6 mA and 0.1 Hz) to evoke monosynaptic excitatory postsynaptic currents (EPSCs). The α-amino-3-hydroxy-5-methyl-4-isoxazolepropionic acid receptor (AMPAR)-mediated EPSCs were recorded at a holding potential of −60 mV in the presence of 10 μM bicuculline and 1 μM strychnine, whereas NMDAR-mediated EPSCs were recorded at +40 mV in the presence of 10 μM 6-cyano-7-nitroquinoxaline-2,3-dione, 10 μM bicuculline, and 1 μM strychnine. […] All signals were recorded using an amplifier (MultiClamp700B; Axon Instruments Inc., Union City, Calif.), filtered at 1-2 kHz, digitized at 10 kHz, and stored for off-line analysis. Final spinal cord slice recordings were performed 3-4 weeks after the nerve injury or sham surgery. In all electrophysiological experiments, 3-5 animals were used for each recording protocol, and only 1 neuron was recorded in each spinal cord slice.

α2δ-1 = assay: α2δ expression in DRG and dorsal spinal cord after intrathecal siRNA (PCR, Western blot); format: in vivo, rat; conditions: SNL rats
Method: Li et al., 2004). α2δ-1-specific siRNA […] ID NO:49) or universal negative-control siRNA (#SIC001, Sigma-Aldrich, St. Louis, Mo.) was mixed with i-Fect (Neuromics, Edina, Minn.) to a final concentration of 400 mg/L for the intrathecal injections. α2δ-1-specific siRNA or negative control siRNA (4 μg/day for 4 days) was administered intrathecally in the SNL rats 3 weeks after surgery (Dolphin et al., 2012). Western immunoblotting analysis of α2δ-1: Western blotting was used to quantify the α2δ-1 expression level in the DRG and dorsal spinal cord. […] The supernatant was carefully collected, and the protein concentration was measured using a DC Protein Assay Kit (Bio-Rad, Hercules, Calif.). […] The specific protein band detected by using the α2δ-1 antibody was confirmed by assays of protein knockdown using the α2δ-1-specific siRNA in vivo. The protein bands were detected with ECL kit (Thermo Fisher Scientific, Waltham, Mass.), and protein band intensity was visualized and quantified using the Odyssey Fc Imager (LI-COR Biosciences, Lincoln, Nebr.). Quantitative PCR analysis: Total RNA was extracted from the DRG and spinal cord tissues at the L5 and L6 levels using TRIzol-chloroform and then treated with DNase I (Invitrogen). cDNA was prepared by using the SuperScript III First-Strand Synthesis Kit and then treated with RNase H (Invitrogen). […]

SNL rats = assay: Withdrawal thresholds in spinal nerve ligation (SNL), sham and naive rats; format: in vivo, rat
Description: Animal models of neuropathic pain: All surgical preparations and experimental protocols were approved by the Animal Care and Use Committee of the University of Texas MD Anderson Cancer Center and conformed to the National Institutes of Health guidelines for the ethical use of animals. Male Sprague-Dawley rats (8-10 weeks of age) were purchased from Harlan Laboratories (Indianapolis, Ind.). L5 and L6 spinal nerve ligation (SNL) were used as an experimental model of neuropathic pain (Cole et al., 2005). In brief, anesthesia was induced with 2-3% isoflurane, isolated the left L5-L6 spinal nerves and ligated them tightly with 6-0 silk sutures. The rats in the sham control group underwent the same surgical procedures except for the nerve ligation.
Intrathecal catheters were implanted in some SNL group rats during isoflurane-induced anesthesia 2-3 weeks after SNL surgery. Briefly, the anesthetized animal was placed on a stereotaxic frame, and a small incision was made at the back of its neck. Then, a small puncture was made in the atlanto-occipital membrane of the cisterna magna, and a PE-10 catheter (˜8 cm) was inserted with the caudal tip reaching the lumbar enlargement of the spinal cord (Luo et al., 2001; Patel et al., 2013). The rostral end of the catheter was exteriorized and closed the wound with sutures. The animals were allowed to recover for at least 4 days before the intrathecal injections were performed. Animals displaying signs of motor or neurological dysfunction were immediately killed with an intraperitoneal injection of phenobarbital (200 mg/kg) or by inhalation of CO2.
Behavioral assessments of nociception: To detect tactile allodynia, von Frey filaments were applied to the animals' left hindpaws (ipsilateral to the nerve injury). The rats or mice were placed individually in suspended chambers on a mesh floor. After an acclimation period of 30 min, a series of calibrated von Frey filaments were applied (Stoelting, Wood Dale, Ill.) perpendicularly to the plantar surface of the hindpaw with sufficient force to bend the filament for 6 s. Brisk withdrawal or paw flinching was considered a positive response. After a response, the filament of the next lower force was applied. In the absence of a response, the filament of the next greater force was applied. Using the up-down method, the tactile stimulus that produced a 50% likelihood of a withdrawal response was calculated (Fuller-Bicer et al., 2009).
To quantify the mechanical nociceptive threshold in the rats and mice (Patel et al., 2013; Dolphin et al., 2012), the paw pressure tests were conducted on the hindpaw with an analgesiometer (Ugo Basile, Varese, Italy). The device was activated by pressing a foot pedal, which triggered a motor that applied a constantly increasing force on a linear scale. […]

[2] = test system: presynaptic NMDARs of spinal dorsal horn neurons; assay: Spinal cord slice recordings, morphine-treated WT and Cacna2d1 KO mice
[3] = biological target: T2, NMDARs of spinal dorsal horn neurons (Mus musculus, UniProt P35436+P35438+Q01097); assay: Electrophysiological recordings in mouse spinal cord slices (spared nerve injury); format: cell-based; conditions: Cacna2d1+/+ mice; bath application of AP5
T2 construct: from tissue; host or cells: mouse lumbar spinal cord slices (dorsal horn / lamina II neurons), WT and Cacna2d1 KO

[4] = test system: presynaptic NMDARs of spinal lamina II neurons; assay: Spinal cord slice recordings, paclitaxel-treated WT and α2δ-1 KO mice; format: cell-based, mouse; conditions: bath AP5
[5] = test system: rats treated with the Cacna2d1 vector; assay: Withdrawal thresholds in rats overexpressing Cacna2d1 (lentiviral vector); format: in vivo, rat; conditions: Cacna2d1 vector rats; AP5, peptide, gabapentin intrathecal; memantine systemic
SHRs = assay: PVN microinjection and recording of ABP and RSNA in SHRs; format: in vivo, rat
Method: PVN microinjection and recording of renal sympathetic nerve activity: Rats were anaesthetized via i.p. administration of a mixture of α-chloralose (60 mg kg-1) and urethane (800 mg kg-1) and mechanically ventilated with trachea cannulation. The arterial blood pressure (ABP) was monitored via a catheter placed in the left femoral artery, and heart rate (HR) was extracted from the pulsatile pressure wave. A retroperitoneal incision was made, and a branch of the left renal postganglionic sympathetic nerve was isolated under a surgical microscope. The renal sympathetic nerve was cut distally to ensure that afferent activity was not recorded. The ABP, HR and renal sympathetic nerve activity (RSNA) were recorded using a 1401-PLUS analogue-to-digital converter and Spike2 system (Cambridge Electronic Design, Cambridge, UK). After the brain was exposed, a microinjection pipette (tip diameter 20-30 μm) was advanced into the PVN in accordance with the stereotactic co-ordinates: 1.6-2.0 mm caudal to the bregma, 0.5 mm lateral to the midline and 7.0-7.5 mm ventral to the dura. The microinjection was performed using a Nanoject II (Drummond Scientific Company) and monitored using a surgical microscope as described previously (Li & Pan, 2006, 2007; Qiao et al. 2017). […] At the end of each experiment, the electrical background noise was measured after the proximal end of renal nerve was crushed at the end of each experiment. To determine the location of the injection site and diffusion of the drugs in the PVN, 5% rhodamine-labelled fluorescent microspheres (0.04 μm; Molecular Probes) were included in the injection solution. Rats were excluded from the data analysis if the microinjections were misplaced outside the PVN.

[6] = morphine-treated Cacna2d1 KO mice, AP5
[7] = morphine-treated WT mice, AP5 50 μM
[8] = paclitaxel-treated α2δ-1 KO mice

T1 sequence (Q00959 20-1464 limits assumed, other chains not shown): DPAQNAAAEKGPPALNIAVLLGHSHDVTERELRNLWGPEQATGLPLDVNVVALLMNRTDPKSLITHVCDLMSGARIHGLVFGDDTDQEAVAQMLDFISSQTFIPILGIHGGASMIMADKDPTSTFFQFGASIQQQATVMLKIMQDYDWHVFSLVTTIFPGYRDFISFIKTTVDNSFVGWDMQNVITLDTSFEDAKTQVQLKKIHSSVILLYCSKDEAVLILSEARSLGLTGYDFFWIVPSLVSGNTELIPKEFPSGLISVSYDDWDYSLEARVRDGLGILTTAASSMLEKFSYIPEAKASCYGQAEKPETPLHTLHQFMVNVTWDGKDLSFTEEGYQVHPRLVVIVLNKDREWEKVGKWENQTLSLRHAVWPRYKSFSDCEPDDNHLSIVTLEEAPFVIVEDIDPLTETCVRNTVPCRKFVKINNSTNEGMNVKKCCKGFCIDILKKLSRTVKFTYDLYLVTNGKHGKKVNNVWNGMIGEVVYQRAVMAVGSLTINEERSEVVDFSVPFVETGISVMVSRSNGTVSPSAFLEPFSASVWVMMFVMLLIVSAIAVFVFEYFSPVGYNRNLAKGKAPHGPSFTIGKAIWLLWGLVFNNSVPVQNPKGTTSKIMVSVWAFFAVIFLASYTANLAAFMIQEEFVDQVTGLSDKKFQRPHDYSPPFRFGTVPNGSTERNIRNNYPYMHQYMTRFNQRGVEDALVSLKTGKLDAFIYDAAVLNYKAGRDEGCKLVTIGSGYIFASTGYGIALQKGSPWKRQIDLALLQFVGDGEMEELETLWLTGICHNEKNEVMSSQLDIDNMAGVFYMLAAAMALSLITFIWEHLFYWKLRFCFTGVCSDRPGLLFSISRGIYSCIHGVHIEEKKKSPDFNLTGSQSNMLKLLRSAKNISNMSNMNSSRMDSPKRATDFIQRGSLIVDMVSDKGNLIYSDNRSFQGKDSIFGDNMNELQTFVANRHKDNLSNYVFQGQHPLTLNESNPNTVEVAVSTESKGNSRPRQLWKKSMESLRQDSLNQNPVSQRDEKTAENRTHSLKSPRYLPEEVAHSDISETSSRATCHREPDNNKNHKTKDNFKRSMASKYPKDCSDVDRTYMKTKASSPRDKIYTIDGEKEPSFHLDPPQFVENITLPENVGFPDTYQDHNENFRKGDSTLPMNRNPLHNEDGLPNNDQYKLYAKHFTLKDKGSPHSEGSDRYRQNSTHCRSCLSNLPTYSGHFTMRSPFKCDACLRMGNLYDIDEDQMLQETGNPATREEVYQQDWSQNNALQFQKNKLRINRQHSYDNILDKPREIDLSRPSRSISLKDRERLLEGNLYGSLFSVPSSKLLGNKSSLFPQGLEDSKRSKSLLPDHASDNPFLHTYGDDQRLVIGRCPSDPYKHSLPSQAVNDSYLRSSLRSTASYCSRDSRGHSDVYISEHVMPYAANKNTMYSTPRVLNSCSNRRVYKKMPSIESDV
T1 sequence (Q00960 27-1482, other chains not shown): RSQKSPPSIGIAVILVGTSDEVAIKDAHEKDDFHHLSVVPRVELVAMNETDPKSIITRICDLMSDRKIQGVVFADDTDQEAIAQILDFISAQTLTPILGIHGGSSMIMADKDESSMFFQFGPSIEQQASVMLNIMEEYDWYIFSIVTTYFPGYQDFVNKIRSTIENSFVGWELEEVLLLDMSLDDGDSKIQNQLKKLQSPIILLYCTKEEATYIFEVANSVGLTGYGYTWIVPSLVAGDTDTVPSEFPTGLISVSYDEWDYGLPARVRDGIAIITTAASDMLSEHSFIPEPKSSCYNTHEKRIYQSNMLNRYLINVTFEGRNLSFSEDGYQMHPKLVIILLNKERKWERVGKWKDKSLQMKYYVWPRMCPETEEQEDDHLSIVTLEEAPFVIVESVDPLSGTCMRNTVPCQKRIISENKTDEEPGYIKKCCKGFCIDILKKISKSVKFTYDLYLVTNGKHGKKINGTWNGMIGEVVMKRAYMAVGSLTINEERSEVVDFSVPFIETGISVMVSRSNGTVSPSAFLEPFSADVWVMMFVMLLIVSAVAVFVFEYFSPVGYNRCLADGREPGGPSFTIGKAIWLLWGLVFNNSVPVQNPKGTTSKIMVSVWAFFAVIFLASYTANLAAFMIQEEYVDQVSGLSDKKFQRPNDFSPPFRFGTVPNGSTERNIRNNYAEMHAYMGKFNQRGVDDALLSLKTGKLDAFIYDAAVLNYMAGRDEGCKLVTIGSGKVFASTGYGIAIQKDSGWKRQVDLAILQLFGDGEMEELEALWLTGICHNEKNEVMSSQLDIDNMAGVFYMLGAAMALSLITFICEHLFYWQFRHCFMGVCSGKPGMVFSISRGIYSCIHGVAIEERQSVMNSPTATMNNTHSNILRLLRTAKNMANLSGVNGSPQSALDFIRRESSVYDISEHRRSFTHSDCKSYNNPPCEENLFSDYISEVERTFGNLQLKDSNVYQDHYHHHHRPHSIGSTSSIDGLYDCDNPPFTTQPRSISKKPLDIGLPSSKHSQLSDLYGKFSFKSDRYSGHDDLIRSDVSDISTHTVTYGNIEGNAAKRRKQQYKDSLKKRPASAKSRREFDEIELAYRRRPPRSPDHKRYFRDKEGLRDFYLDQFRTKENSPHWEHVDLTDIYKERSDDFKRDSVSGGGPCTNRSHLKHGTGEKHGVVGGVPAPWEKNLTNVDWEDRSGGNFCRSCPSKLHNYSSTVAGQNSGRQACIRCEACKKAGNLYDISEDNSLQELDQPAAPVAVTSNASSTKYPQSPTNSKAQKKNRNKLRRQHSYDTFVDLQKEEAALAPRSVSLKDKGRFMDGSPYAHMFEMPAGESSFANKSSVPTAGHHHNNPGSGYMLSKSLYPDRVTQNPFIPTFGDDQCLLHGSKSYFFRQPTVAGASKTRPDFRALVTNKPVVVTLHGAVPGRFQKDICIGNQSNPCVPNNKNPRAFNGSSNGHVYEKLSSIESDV

Row | Substance | SNL-induced increase in puff NMDA currents of dorsal horn neurons ([1]; gabapentin 100 mM for 30 min) | SNL-induced increase in (NMDAR-mediated) baseline frequency of mEPSCs ([1]; gabapentin for 30 min) | expression level of α2δ-1 in the DRG and dorsal spinal cord (α2δ-1) | pain hypersensitivity of SNL rats (SNL rats; SNL rats, peptides intrathecal or systemic, siRNA intrathecal) | withdrawal thresholds in naive control rats (SNL rats; naive control rats, intrathecal siRNA) | amplitude or PPR of monosynaptic EPSCs [2, 6] | frequency or amplitude of mEPSCs [2, 6] | PPR of evoked EPSCs [2, 7] | amplitude of monosynaptic EPSCs [2, 7] | baseline frequency of mEPSCs [2, 7] | nerve injury-increased amplitude of monosynaptic EPSCs evoked by dorsal root stimulation [3] | baseline PPR decreased by paclitaxel ([4]; WT mice) | paclitaxel-induced increase in the frequency of mEPSCs ([4]; WT mice) | increased baseline amplitude of evoked EPSCs ([4]; paclitaxel-treated WT mice) | PPR [4, 8] | amplitude of evoked EPSCs [4, 8] | frequency of mEPSCs [4, 8] | pain hypersensitivity induced by Cacna2d1 overexpression (tactile and pressure withdrawal thresholds) [5] | ABP and RSNA, subsequent AP5 after α2δ-1Tat peptide (SHRs; AP5 1.0 nmol, 50 nL into the PVN) | ABP and RSNA, AP5 after prior Tat-fused control peptide (SHRs; AP5 into the PVN)
1 | CAAGCAACGAAGUUGUCUA [Cacna2d1-specific siRNA] | completely normalized | completely normalized | reduced | reduced pain hypersensitivity | had no effect; also recorded: No significant effects | – | – | – | – | – | – | – | – | – | – | – | – | – | – | –
2 | (2R)-amino-5-phosphonopentanoate [AP5] | – | – | – | – | – | had no effect | had no effect | increased | significantly reduced | substantially reduced | readily normalized | restored | normalized | normalized | had no effect | had no effect | had no effect | readily reversed | failed to further decrease | significantly decreased
